Laboratory results as given in PMC10575874, “Structural insights into the allosteric inhibition of P2X4 receptors” (Nature Communications, 2023).

B1: zebrafish P2X4 receptor (residues 9-382) (receptor, UniProt F8W463 9-382, looked up)
chain: DSVSQCFFDYYTSKILIIRSKKVGTLNRFTQALVIAYVIGYVCVYNKGYQDTDTVLSSVTTKVKGIALTNTSELGERIWDVADYIIPPQEDGSFFVLTNMIITTNQTQSKCAENPTPASTCTSHRDCKRGFNDARGDGVRTGRCVSYSASVKTCEVLSWCPLEKIVDPPNPPLLADAENFTVLIKNNIRYPKFNFNKRNILPNINSSYLTHCVFSRKTDPDCPIFRLGDIVGEAEEDFQIMAVHGGVMGVQIRWDCDLDMPQSWCVPRYTFRRLDNKDPDNNVAPGYNFRFAKYYKNSDGTETRTLIKGYGIRFDVMVFGQAGKFNIIPTLLNMGAGLALLGLVNVICDWIVLTFMKRKQHYKEQKYTYVDDFG
notes: P2X4 receptor, zebrafish (Danio rerio), GenBank AAH66495.1, residues 9-382 (truncation of the N-terminal 8 and the C-terminal 7 residues); Homotrimer; A C-terminal HRV 3C site stood before TGP and the Twin-Strep-tag; residues of the site may remain after cleavage; also called zfP2X4; source: Sf9 (baculovirus), purified (Strep-Tactin, HRV 3C cleavage, SEC), reconstituted into PMAL-C8 amphipol; not …

What was measured:
[1] = biological target: T1, human P2X3 receptor, P2X4-like gain-of-function mutant (Homo sapiens, UniProt P56373, M75W/T82I/V98I); test: patch clamp of ATP-evoked currents in HEK293 cells at […] BX430; type: cell-based
T1 construct: gene P2RX3
T1 sequence (P56373 1-397 M75W/T82I/V98I): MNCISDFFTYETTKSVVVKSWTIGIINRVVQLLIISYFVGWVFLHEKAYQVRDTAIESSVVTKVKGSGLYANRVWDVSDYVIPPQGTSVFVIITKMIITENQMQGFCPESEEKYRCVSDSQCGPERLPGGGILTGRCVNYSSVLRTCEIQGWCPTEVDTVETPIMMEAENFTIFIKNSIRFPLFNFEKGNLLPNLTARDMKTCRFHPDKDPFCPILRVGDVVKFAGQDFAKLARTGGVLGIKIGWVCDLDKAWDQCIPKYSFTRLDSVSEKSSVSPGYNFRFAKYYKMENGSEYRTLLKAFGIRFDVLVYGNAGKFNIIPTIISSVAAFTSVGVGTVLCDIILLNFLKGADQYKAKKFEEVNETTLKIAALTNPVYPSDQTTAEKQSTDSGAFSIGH

[2] = biological target: T2, zebrafish P2X4 receptor (zfP2X4) (Danio rerio, UniProt F8W463); test: cryo-EM structure ([…] Å); whole-cell patch clamp in HEK293 cells
T2 construct: gene p2rx4a; residues 9-382 (GenBank AAH66495.1), trimer in PMAL-C8 amphipol
T2 sequence (F8W463 9-382): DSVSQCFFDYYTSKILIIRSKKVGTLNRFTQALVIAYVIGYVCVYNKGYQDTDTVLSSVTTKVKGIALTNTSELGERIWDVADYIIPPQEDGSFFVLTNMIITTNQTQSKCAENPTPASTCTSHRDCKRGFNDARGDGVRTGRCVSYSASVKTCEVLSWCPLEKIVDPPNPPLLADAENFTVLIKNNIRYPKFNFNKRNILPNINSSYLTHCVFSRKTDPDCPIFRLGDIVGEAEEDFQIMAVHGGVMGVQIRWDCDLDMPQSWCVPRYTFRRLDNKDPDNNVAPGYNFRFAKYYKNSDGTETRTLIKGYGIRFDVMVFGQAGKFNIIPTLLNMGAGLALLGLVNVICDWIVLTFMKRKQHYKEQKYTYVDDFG

[3] = biological target: the molecule itself; test: cryo-EM structure; purified zfP2X4 in PMAL-C8 amphipol, incubated with 50 uM BX430 or 125 uM BAY-1797 for 1 h; C3 symmetry imposed, also processed with C1 symmetry

Molecule | patch clamp of ATP-evoked currents in HEK293 cells at 30 and 100 μM BX430 [1] | IC50 [2] | stoichiometry N [3]
CC(C)c1cc(Br)c(NC(=O)Nc2cccnc2)c(Br)c1 [BX430, 1-(2,6-dibromo-4-isopropylphenyl)-3-(3-pyridyl)urea] | the P2X4-like mutant of human P2X3 (M75W/T82I/V98I) conferred sensitivity to BX430 | BX430-bound zfP2X4 (EMD-36668) (PDB 8JV5) | 
B1 |  |  | 3
